These results are taken from patent US9388147B2 (Receptos, Inc., priority 2009, dated 2016).

SMILES strings stand for the structures. pEC50: −log10 of the molar value.

This assay deals with S1P1/EDG1 (Homo sapiens, UniProt P21453). Briefly: S1P1 CRE-bla CHOK1 reporter assay, inhibition of Forskolin induced cAMP. Type of assay: cell-based. Particulars: agonist activity range, S1P1 CRE-bla CHOK1, 2 μM Forskolin; read-out: S1P1 ACTIVITY
Chain of S1P1/EDG1 (P21453 whole entry): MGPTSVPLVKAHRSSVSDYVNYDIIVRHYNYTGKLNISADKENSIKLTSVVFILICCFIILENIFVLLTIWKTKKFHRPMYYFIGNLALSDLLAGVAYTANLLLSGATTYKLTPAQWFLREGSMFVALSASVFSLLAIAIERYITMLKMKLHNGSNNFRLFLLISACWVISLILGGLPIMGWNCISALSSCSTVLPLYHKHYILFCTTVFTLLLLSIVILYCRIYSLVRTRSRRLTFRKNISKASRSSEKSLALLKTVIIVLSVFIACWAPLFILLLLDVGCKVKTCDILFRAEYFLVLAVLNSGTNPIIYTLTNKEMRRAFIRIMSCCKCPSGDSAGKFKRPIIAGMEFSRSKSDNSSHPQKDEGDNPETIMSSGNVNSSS
As for the experimental part:
Generation of S1P1-Mediated Inhibition of cAMP Reporter Assay
A mammalian expression plasmid containing S1P1/EDG1 cloned into pcDNA3.1 was purchased from Missouri S&T cDNA Resource Centre. […] S1P1/pcDNA3.1 was transfected into the CRE-bla CHO K1 (Invitrogen) cell line, and stable single cell clones were selected using standard techniques.
S1P1 CRE-Bla CHOK1 Reporter Assay—Characterization of S1P1 Agonists
Cells were seeded into 384-well black wall/clear bottom plates at 10^4 cells/well/19.5 μl assay media (DMEM-phenol free, 0.5% charcoal/dextran stripped serum, 2 mM glutamine, 0.1 mM NEAA, 1 mM Na-Pyruvate, 25 mM Hepes) and incubated for 18 hrs at 37° C. in 5% CO2. Dose response curves (10-point) were generated in 10 mM Hepes, 0.1% Pluronic F127, in the presence of Forskolin. Cells were treated with 0.5 μl compound in the presence of 2 μM Forskolin for 4 hrs at 37° C. The FRET-based β-lactamase fluorescent substrate (LiveBLAzer™-FRET B/G Loading Kit CC4-AM; Invitrogen) was prepared according to manufacturer's directions, and incubated with cells for 2 hrs at room temperature. […] Data was analyzed by non-linear regression to determine the EC50 for inhibition of Forskolin induced cAMP.
On to `CC(C)Oc1ccc(-c2nc(-c3cccc4c3CCC4NC[C@@H](O)CO)no2)cc1C#N` (mixture of isomers) [Compound 30], for which the pEC50 is 9.30 to 10.30.
For `CC(C)Oc1ccc(-c2nc(-c3cccc4c3CCC4N3CC[C@@H](N)C3)no2)cc1C#N` (mixture of isomers) [Compound 31], the pEC50 was under 8.30.
As to `CC(C)Oc1ccc(-c2nc(-c3cccc4c3CCC4N3CC[C@H](N)C3)no2)cc1C#N` (mixture of isomers) [Compound 32], the pEC50 was 8.30 to 9.30.
Then `CC(C)Oc1ccc(-c2nc(-c3cccc4c3CCC4N3CC[C@@H](O)C3)no2)cc1C#N` (mixture of isomers) [Compound 33], with 8.30 to 9.30; and `CC(C)Oc1ccc(-c2nc(-c3cccc4c3CCC4N3CC[C@H](O)C3)no2)cc1C#N` (mixture of isomers) [Compound 34], with 8.30 to 9.30; and `CC(C)Oc1ccc(-c2nc(-c3cccc4c3CCC4NC[C@H](O)CO)no2)cc1C#N` (mixture of isomers) [Compound 41], with 9.30 to 10.30.
For the compound `CC(C)Oc1ccc(-c2nc(-c3cccc4c3CCC4NC[C@@H](C)O)no2)cc1C#N` (mixture of isomers) [Compound 42], the pEC50 is 8.30 to 9.30.
Then `CC(C)Oc1ccc(-c2nc(-c3cccc4c3CCC4NC[C@H](C)O)no2)cc1C#N` (mixture of isomers) [Compound 43], with 9.30 to 10.30; and `CC(C)Oc1ccc(-c2nc(-c3cccc4c3CC[C@H]4NC(C)C(=O)N(C)C)no2)cc1C#N` (mixture of isomers) [Compound 58], with 8.30 to 9.30.
Next, `N#Cc1cc(-c2nc(-c3cccc4c3CCC4NCCO)no2)ccc1OC[C@@H](O)CO` (mixture of isomers) [Compound 104]: under 8.30; `CC(C)Oc1ccc(-c2nc(-c3cccc4c3CCC4NC(C)(C)CO)no2)cc1C#N` (racemic) [Compound 15]: 8.30 to 9.30.
On to `CC(C)Oc1ccc(-c2nc(-c3cccc4c3CCC4N3CCC(O)CC3)no2)cc1C#N` (racemic) [Compound 16, 5-(3-(1-(4-hydroxypiperidin-1-yl)-2,3-dihydro-1H-inden-4-yl)-1,2,4-oxadiazol-5-yl)-2-isopropoxybenzonitrile], for which the pEC50 was 9.30 to 10.30.
Next, `CC(C)Oc1ccc(-c2nc(-c3cccc4c3CCC4NC(CO)CO)no2)cc1C#N` (racemic) [Compound 17, 5-(3-(1-((1,3-dihydroxypropan-2-yl)amino)-2,3-dihydro-1H-inden-4-yl)-1,2,4-oxadiazol-5-yl)-2-isopropoxybenzonitrile]: 9.30 to 10.30.
Next, `CC(C)Oc1ccc(-c2nc(-c3cccc4c3CCC4N3CC(C(=O)O)C3)no2)cc1C#N` (racemic) [Compound 18, 1-(4-(5-(3-cyano-4-isopropoxyphenyl)-1,2,4-oxadiazol-3-yl)-2,3-dihydro-1H-inden-1-yl)azetidine-3-carboxylic acid]: over 10.30; `CC(C)Oc1ccc(-c2nc(-c3cccc4c3CCC4NC3CCNCC3)no2)cc1C#N` (racemic) [Compound 19, 2-isopropoxy-5-(3-(1-(piperidin-4-ylamino)-2,3-dihydro-1H-inden-4-yl)-1,2,4-oxadiazol-5-yl)benzonitrile]: under 8.30.
Then `CC(C)Oc1ccc(-c2nc(-c3cccc4c3CCC4NCCN3CCCCC3)no2)cc1C#N` (racemic) [Compound 20], with under 8.30; and `CC(C)Oc1ccc(-c2nc(-c3cccc4c3CCC4NCCN3CCOCC3)no2)cc1C#N` (racemic) [Compound 21], with 8.30 to 9.30.
Take `CC(C)Oc1ccc(-c2nc(-c3cccc4c3CCC4NC3CCCCC3)no2)cc1C#N` (racemic) [Compound 22]: the pEC50 is under 8.30.
Next, `CC(C)Oc1ccc(-c2nc(-c3cccc4c3CCC4NC3CCOCC3)no2)cc1C#N` (racemic) [Compound 23]: 8.30 to 9.30; `CC(C)Oc1ccc(-c2nc(-c3cccc4c3CCC4N3CCN(CCO)CC3)no2)cc1C#N` (racemic) [Compound 24]: 9.30 to 10.30.
Next, `CC(C)Oc1ccc(-c2nc(-c3cccc4c3CCC4NCCN3CCNCC3)no2)cc1C#N` (racemic) [Compound 25]: under 8.30.
Next, `CC(C)Oc1ccc(-c2nc(-c3cccc4c3CCC4NCCN3CCCC3)no2)cc1C#N` (racemic) [Compound 26]: 8.30 to 9.30; `CNCCNC1CCc2c(-c3noc(-c4ccc(OC(C)C)c(C#N)c4)n3)cccc21` (racemic) [Compound 27]: 8.30 to 9.30.
Regarding `CCN(CC)CCNC1CCc2c(-c3noc(-c4ccc(OC(C)C)c(C#N)c4)n3)cccc21` (racemic) [Compound 28], the pEC50 is 8.30 to 9.30.
Next, `CC(C)Oc1ccc(-c2nc(-c3cccc4c3CCC4NCCN)no2)cc1C#N` (racemic) [Compound 29]: 9.30 to 10.30.
As for `COC(=O)CCNC1CCc2c(-c3noc(-c4ccc(OC(C)C)c(C#N)c4)n3)cccc21` (racemic) [Compound 35], the pEC50 is 9.30 to 10.30.
Then `COC(=O)C1CN(C2CCc3c(-c4noc(-c5ccc(OC(C)C)c(C#N)c5)n4)cccc32)C1` (racemic) [Compound 36], with 9.30 to 10.30; and `CC(=O)OCCNC1CCc2c(-c3noc(-c4ccc(OC(C)C)c(C#N)c4)n3)cccc21` (racemic) [Compound 37], with 9.30 to 10.30.
Then `COCC(=O)NC1CCc2c(-c3noc(-c4ccc(OC(C)C)c(C#N)c4)n3)cccc21` (racemic) [Compound 39], with 9.30 to 10.30.
As to `CCOC(=O)CNC1CCc2c(-c3noc(-c4ccc(OC(C)C)c(C#N)c4)n3)cccc21` (racemic) [Compound 40], the pEC50 was 9.30 to 10.30.
Then `CC(C)Oc1ccc(-c2nc(-c3cccc4c3CCC4NCCS(C)(=O)=O)no2)cc1C#N` (racemic) [Compound 44], with 9.30 to 10.30; and `CNS(=O)(=O)CCNC1CCc2c(-c3noc(-c4ccc(OC(C)C)c(C#N)c4)n3)cccc21` (racemic) [Compound 45, 2-((4-(5-(3-cyano-4-isopropoxyphenyl)-1,2,4-oxadiazol-3-yl)-2,3-dihydro-1H-inden-1-yl)amino)-N-methylethanesulfonamide], with 9.30 to 10.30.
Consider `CC(C)Oc1ccc(-c2nc(-c3cccc4c3CCC4N3CCOCC3)no2)cc1C#N` (racemic) [Compound 46], for which the pEC50 is 8.30 to 9.30.
Then `CC(C)Oc1ccc(-c2nc(-c3cccc4c3CCC4N3CCNCC3)no2)cc1C#N` (racemic) [Compound 47], with 9.30 to 10.30.
Then `CC(C)Oc1ccc(-c2nc(-c3cccc4c3CCC4N3CCCCC3)no2)cc1C#N` (racemic) [Compound 48], with under 8.30; and `N#Cc1cc(-c2nc(-c3cccc4c3CCC4NCCO)no2)ccc1O` (racemic) [Compound 102, 2-hydroxy-5-(3-(1-((2-hydroxyethyl)amino)-2,3-dihydro-1H-inden-4-yl)-1,2,4-oxadiazol-5-yl)benzonitrile], with under 8.30; and `CC(C)COc1ccc(-c2nc(-c3cccc4c3CCC4NCCO)no2)cc1C#N` (racemic) [Compound 103, 5-(3-(1-((2-hydroxyethyl)amino)-2,3-dihydro-1H-inden-4-yl)-1,2,4-oxadiazol-5-yl)-2-isobutoxybenzonitrile], with 8.30 to 9.30.
Then `COCCOc1ccc(-c2nc(-c3cccc4c3CCC4NCCO)no2)cc1C#N` (racemic) [Compound 106], with under 8.30; and `CC(C)C(=O)Oc1ccc(-c2nc(-c3cccc4c3CCC4NCCO)no2)cc1C#N` (racemic) [Compound 108], with under 8.30.
As for `N#Cc1cc(-c2nc(-c3cccc4c3CCC4NCCO)no2)ccc1OCC(=O)O` (racemic) [Compound 109], the pEC50 was under 8.30.
Next, `COC(=O)CCCCNC1CCc2c(-c3noc(-c4ccc(OC(C)C)c(C#N)c4)n3)cccc21` (racemic) [Compound 147]: over 10.30; `CC(C)Oc1ccc(-c2nc(-c3cccc4c3CCC4NS(C)(=O)=O)no2)cc1C#N` (stereo in doubt) [Compound 70]: 9.30 to 10.30.
`CNCCS(=O)(=O)NC1CCc2c(-c3noc(-c4ccc(OC(C)C)c(C#N)c4)n3)cccc21` (stereo in doubt) [Compound 75]: the pEC50 was 8.30 to 9.30.
As to `CC(C)Oc1ccc(-c2nc(-c3cccc4c3CCC4NS(=O)(=O)CCN(C)C)no2)cc1C#N` (stereo in doubt) [Compound 77], the pEC50 is 9.30 to 10.30.
Then `CC(C)Oc1ccc(-c2nc(-c3cccc4c3CCC4NS(=O)(=O)c3ccccc3)no2)cc1C#N` (stereo in doubt) [Compound 79], with 8.30 to 9.30; and `CC(C)Oc1ccc(-c2nc(-c3cccc4c3CCC4NS(=O)(=O)c3ccc(C(=O)O)cc3)no2)cc1C#N` (stereo in doubt) [Compound 80], with under 8.30; and `CC(=O)Nc1ccc(S(=O)(=O)NC2CCc3c(-c4noc(-c5ccc(OC(C)C)c(C#N)c5)n4)cccc32)cc1` (stereo in doubt) [Compound 82], with under 8.30.
As to `COCCNC1CCc2c(-c3noc(-c4ccc(OC(C)C)c(C#N)c4)n3)cccc21` (stereo in doubt) [Compound 88], the pEC50 is 8.30 to 9.30.
Then `CC(C)Oc1cc(C#N)cc(-c2nc(-c3cccc4c3CCC4N)no2)c1` (stereo in doubt) [Compound 97, (R)-3-(3-(1-amino-2,3-dihydro-1H-inden-4-yl)-1,2,4-oxadiazol-5-yl)-5-isopropoxy benzo-nitrile], with under 8.30.
